Assay results: the NIST ThermoML archive (doi:10.1021/je900511c)

Conditions: Liquid, Closed cell (Static) method

CCO[Si](C)(Cl)Cl [dichloroethoxymethylsilane]
Conditions	vapor or sublimation pressure [kPa]
312.94 K	11.32
318.43 K	14.32
323.01 K	17.32
326.93 K	20.32
330.24 K	23.32
333.29 K	26.32
336.2 K	29.32
338.84 K	32.33
341.28 K	35.33
343.57 K	38.33
345.66 K	41.33
347.54 K	44.33
349.48 K	47.33
351.36 K	50.33
353.04 K	53.33
354.72 K	56.33
356.25 K	59.33
357.82 K	62.33
359.25 K	65.33
360.57 K	68.33
361.95 K	71.33
363.22 K	74.33
364.59 K	77.33
365.87 K	80.33
366.98 K	83.33
368.21 K	86.33
369.38 K	89.33
370.5 K	92.33
371.51 K	95.33
372.58 K	98.33
373.6 K	101.27
